From patent US9878982B2, “Pyridine derivatives and anti-mycobacterial use thereof” (priority 2014, dated 2018)
≈ marks a conversion by molar mass, not a printed value. Read-outs that look alike come from different tables or passages of the source.

Assays:
[1] = system: Mycobacterium smegmatis strain ATCC19420; assay: In vitro efficacy test using Mycobacterium smegmatis strain ATCC19420 (MIC); assay type: cell-based; conditions: Mycolicibacterium smegmatis, ATCC19420, 72 h, CA-MHB + 0.02% Tween 80, 30° C., read after 72 hours
[2] = system: M. tuberculosis H37Rv; assay: In vitro efficacy test using the H37Rv strain, Microplate Alamar Blue Assay (MABA) MIC; assay type: cell-based, Mycobacterium tuberculosis; conditions: for MIC: Mycobacterium tuberculosis, H37RV
[3] = system: M. tuberculosis H37R; assay: microbe, parasite or virus in culture; assay type: cell-based, Mycobacterium tuberculosis; conditions: Mycobacterium tuberculosis, H37R; read-out: M. tuberculosis H37R LORA (MIC)
[4] = system: Vero Cell; assay: Vero cell cytotoxicity (IC50); assay type: cell-based; conditions: Chlorocebus sabaeus, Vero, African green monkey kidney cells
[5] = Hela cell cytotoxicity (CC50); conditions: human, HeLa cells (human cervical cancer cells), CC50_Hela, half of the toxic concentration
[6] = aerobic, 7H9 medium, Alamar Blue, read-out: M. tuberculosis H37Rv MABA (MIC)
[7] = wild-type H37Rv strain, two values per compound, read-out: MABA MIC vs. H37Rv
[8] = wild-type H37Rv strain, two values per compound

SMILES | MIC [1] | MIC [2, 6] | MIC [3] | IC50 [4] | CC50 [5] | MIC [2, 7] | MABA MIC vs. H37Rv [2, 8]
COc1ccc(-c2cnc(OC)c(C(c3ccccc3)C(O)(CCN(C)C)c3cccc4ccccc34)c2)cc1 (stereo not drawn) [Compound 299, 4-(dimethylamino)-1-(2-methoxy-5-(4-methoxyphenyl)pyridin-3-yl)-2-(naphthalen-1-yl)-1-phenylbutan-2-ol] | 0.125 µg/mL | 0.33 µg/mL | 0.19 µg/mL (≈ 0.357 µM) | > 32 µg/mL | > 64 µg/mL |  | 
COc1ccc(C(c2cc(-c3ccccc3)cnc2OC)C(O)(CCN(C)C)c2ccccc2)cc1 (stereo not drawn) [Compound 237, 4-(dimethylamino)-1-(2-methoxy-5-phenylpyridin-3-yl)-1-(4-methoxyphenyl)-2-phenylbutan-2-ol] | 0.5 µg/mL | 1.89 µg/mL | 3.07 µg/mL (≈ 6.36 µM) | 24.3 µg/mL (≈ 50.3 µM) | 15.6 µg/mL (≈ 32.4 µM) |  | 
COc1ncc(C2=CCSCC2)cc1C(c1ccccc1)C(O)(CCN(C)C)c1cccc2ccccc12 (stereo not drawn) [Compound 259, 1-(5-(3,6-dihydro-2H-thiopyran-4-yl)-2-methoxypyridin-3-yl)-4-(dimethylamino)-2-(naphthalen-1-yl)-1-phenylbutan-2-ol] | 0.125 µg/mL | 0.32 µg/mL | 4.33 µg/mL (≈ 8.25 µM) | > 32 µg/mL | > 64 µg/mL |  | 
COc1ncc(-c2ccsc2)cc1C(c1ccccc1)C(O)(CCN(C)C)c1cccc2ccccc12 (stereo not drawn) [Compound 136, 4-(dimethylamino)-1-(2-methoxy-5-(thiophen-3-yl)pyridin-3-yl)-2-(naphthalen-1-yl)-1-phenylbutan-2-ol] | 0.0312 µg/mL | 0.35 µg/mL | 0.79 µg/mL (≈ 1.55 µM) | > 50 µg/mL | > 64 µg/mL |  | 
COc1ncc(-c2cccc(F)c2)cc1C(c1ccccc1)C(O)(CCN(C)C)c1cccc2ccccc12 (stereo not drawn) [Compound 87, 4-(dimethylamino)-1-(5-(3-fluorophenyl)-2-methoxypyridin-3-yl)-2-(naphthalen-1-yl)-1-phenylbutan-2-ol] | ≤ 0.0625 µg/mL | 0.48 µg/mL | 1.18 µg/mL (≈ 2.27 µM) | > 50 µg/mL | 62.8 µg/mL (≈ 121 µM) |  | 
CCOc1ncc(-c2ccccc2)cc1C(c1ccccc1)C(O)(CCN(C)C)c1cccc2ccccc12 (stereo not drawn) [Compound 217, 4-(dimethylamino)-1-(2-ethoxy-5-phenylpyridin-3-yl)-2-(naphthalen-1-yl)-1-phenylbutan-2-ol] | ≤ 0.0625 µg/mL | 0.41 µg/mL | 1.66 µg/mL (≈ 3.21 µM) | > 32 µg/mL | > 64 µg/mL |  | 
COc1ncc(-c2ccc(Cl)cc2)cc1C(c1ccccc1)C(O)(CCN(C)C)c1cccc(Cl)c1 (stereo not drawn) [Compound 351, 2-(3-chlorophenyl)-1-(5-(4-chlorophenyl)-2-methoxypyridin-3-yl)-4-(dimethylamino)-1-phenylbutan-2-ol] | 0.0156 µg/mL | 0.11 µg/mL | 0.16 µg/mL (≈ 0.307 µM) | > 32 µg/mL | 25.5 µg/mL (≈ 48.9 µM) |  | 
COc1ncc(-c2ccccc2)cc1C(c1ccccc1F)C(O)(CCN(C)C)c1ccccc1 (stereo not drawn) [Compound 51, 4-(dimethylamino)-1-(2-fluorophenyl)-1-(2-methoxy-5-phenylpyridin-3-yl)-2-phenylbutan-2-ol] | ≤ 0.0625 µg/mL | 1.2 µg/mL | 1.77 µg/mL (≈ 3.76 µM) | > 50 µg/mL |  |  | 
COc1ncc(-c2ccc(Br)cc2)cc1C(c1ccccc1)C(O)(CCN(C)C)c1cc(F)cc(F)c1 (stereo not drawn) [Compound 316, 1-(5-(4-bromophenyl)-2-methoxypyridin-3-yl)-2-(3,5-difluorophenyl)-4-dimethylamino-1-phenylbutan-2-ol] | 0.0156 µg/mL | 0.04 µg/mL | 2.97 µg/mL (≈ 5.23 µM) | > 32 µg/mL | > 64 µg/mL |  | 
COc1ncc(-c2ccc(Br)cc2)cc1C(c1ccccc1)C(O)(CCN(C)C)c1cccc(Cl)c1 (stereo not drawn) [Compound 355, 1-(5-(4-bromophenyl)-2-methoxypyridin-3-yl)-2-(3-chlorophenyl)-4-(dimethylamino)-1-phenylbutan-2-ol] | 0.0156 µg/mL | 0.17 µg/mL | 0.21 µg/mL (≈ 0.371 µM) | > 32 µg/mL | 53.2 µg/mL (≈ 94.1 µM) |  | 
COc1ncc(-c2ccccc2)cc1C(c1ccc(Cl)cc1)C(O)(CCN(C)C)c1ccccc1 (stereo not drawn) [Compound 47, 1-(4-chlorophenyl)-4-(dimethylamino)-1-(2-methoxy-5-phenylpyridin-3-yl)-2-phenylbutan-2-ol] | 0.125 µg/mL | 1.25 µg/mL | 0.75 µg/mL (≈ 1.54 µM) | > 50 µg/mL |  |  | 
COc1ncc(-c2ccc(Cl)cc2)cc1C(c1ccccc1)C(O)(CCN(C)C)c1cccc(F)c1 (stereo not drawn) [Compound 297] | 0.0312 µg/mL | 0.1 µg/mL | 0.74 µg/mL (≈ 1.47 µM) | > 32 µg/mL | 39.1 µg/mL (≈ 77.5 µM) |  | 
COc1ncc(-c2cncs2)cc1C(c1ccccc1)C(O)(CCN(C)C)c1cccc2ccccc12 (stereo not drawn) [Compound 171, 4-(dimethylamino)-1-(2-methoxy-5-(thiazol-5-yl)pyridin-3-yl)-2-(naphthalen-1-yl)-1-phenylbutan-2-ol] | 0.125 µg/mL | 1.7 µg/mL | 2.86 µg/mL (≈ 5.61 µM) | 25.4 µg/mL (≈ 49.7 µM) | 14.3 µg/mL (≈ 28.2 µM) |  | 
COc1ncc(-c2ccc(Cl)cc2)cc1C(c1ccccc1)C(O)(CCN(C)C)c1cc(Cl)cc(Cl)c1 (stereo not drawn) [Compound 341, 1-(5-(4-chlorophenyl)-2-methoxypyridin-3-yl)-2-(3,5-dichlorophenyl)-4-(dimethylamino)-1-phenylbutan-2-ol] | ≤ 0.0625 µg/mL | 0.031 µg/mL | 0.23 µg/mL (≈ 0.414 µM) | > 32 µg/mL | > 64 µg/mL |  | 
COc1ncc(-c2ccc(Cl)cc2)cc1C(c1ccccc1)C(O)(CCN(C)C)c1cccc(F)c1F (stereo not drawn) [Compound 287, 1-(5-(4-chlorophenyl)-2-methoxy-3-pyridyl)-2-(2,3-difluorophenyl)-4-dimethylamino-1-phenylbutan-2-ol] | 0.0312 µg/mL | 0.04 µg/mL | 0.16 µg/mL (≈ 0.306 µM) | > 32 µg/mL | > 64 µg/mL |  | 
COc1cccc(C(c2cc(-c3ccccc3)cnc2OC)C(O)(CCN(C)C)c2ccccc2)c1OC (stereo not drawn) [Compound 71, 1-(2,3-dimethoxyphenyl)-4-(dimethylamino)-1-(2-methoxy-5-phenylpyridin-3-yl)-2-phenylbutan-2-ol] | ≤ 0.0625 µg/mL | 1.4 µg/mL | 1.47 µg/mL (≈ 2.87 µM) | > 50 µg/mL |  |  | 
COc1ncc(-c2ccccc2)cc1C(c1cccc(F)c1)C(O)(CCN(C)C)c1ccccc1 (stereo not drawn) [Compound 55, 4-(dimethylamino)-1-(3-fluorophenyl)-1-(2-methoxy-5-phenylpyridin-3-yl)-2-phenylbutan-2-ol] | 0.125 µg/mL | 1.15 µg/mL | 2.06 µg/mL (≈ 4.38 µM) | > 50 µg/mL |  |  | 
COc1ncc(-c2ccccc2)cc1C(c1ccccc1)C(O)(CCN(C)C)c1ccccc1 (stereo not drawn) [Compound 22, 4-(dimethylamino)-1-(2-methoxy-5-phenylpyridin-3-yl)-1,2-diphenylbutan-2-ol] |  | 1.48 µg/mL | 1.15 µg/mL (≈ 2.54 µM) | > 50 µg/mL | 12 µg/mL (≈ 26.4 µM) |  | 
COc1ncc(-c2ccc(Cl)cc2)cc1C(c1ccc(Cl)cc1)C(O)(CCN(C)C)c1cccc2ccccc12 (stereo not drawn) [Compound 329] |  | 0.08 µg/mL | 2.02 µg/mL (≈ 3.53 µM) | > 32 µg/mL | > 64 µg/mL |  | 
NNC(=O)c1ccncc1 [isoniazide, isoniazid, reference compound] |  |  |  |  |  | 0.37 µM | 0.53 µM
COc1cccc(C(c2cc(-c3ccc(Cl)cc3)cnc2OC)C(O)(CCN(C)C)c2cccc(Cl)c2)c1OC (single isomer, unassigned) [Compound 399] | ≤ 0.0625 µg/mL |  |  |  | > 64 µg/mL |  | 
COc1ncc(-c2ccccc2)cc1C(c1cccc(Cl)c1)C(O)(CCN(C)C)c1ccccc1 (stereo not drawn) [Compound 43, 1-(3-chlorophenyl)-4-(dimethylamino)-1-(2-methoxy-5-phenylpyridin-3-yl)-2-phenylbutan-2-ol] | 0.125 µg/mL | 1.18 µg/mL | 1.42 µg/mL (≈ 2.92 µM) | > 50 µg/mL |  |  | 
CO[C@H]1/C=C/O[C@@]2(C)Oc3c(C)c(O)c4c(O)c(c(/C=N/N5CCN(C)CC5)c(O)c4c3C2=O)NC(=O)/C(C)=C\C=C\[C@H](C)[C@H](O)[C@@H](C)[C@@H](O)[C@@H](C)[C@H](OC(C)=O)[C@@H]1C [rifampin, reference compound] |  |  |  |  |  | 0.12 µM | 0.24 µM
COc1ncc(-c2ccccc2F)cc1C(c1ccccc1)C(O)(CCN(C)C)c1cccc2ccccc12 (stereo not drawn) [Compound 83, 4-(dimethylamino)-1-(5-(2-fluorophenyl)-2-methoxypyridin-3-yl)-2-(naphthalen-1-yl)-1-phenylbutan-2-ol] | 0.125 µg/mL | 1.41 µg/mL | 0.57 µg/mL (≈ 1.09 µM) | > 50 µg/mL |  |  | 
COc1cc(-c2cnc(OC)c(C(c3ccccc3)C(O)(CCN(C)C)c3cccc4ccccc34)c2)ccc1Cl (stereo not drawn) [Compound 379] | 0.125 µg/mL |  |  |  | 61.8 µg/mL (≈ 109 µM) |  | 
COc1ncc(-c2ccccc2)cc1C(c1ccccc1)C(O)(CCN(C)C)c1cc(F)ccc1F (stereo not drawn) [Compound 39, 2-(2,5-difluorophenyl)-4-(dimethylamino)-1-(2-methoxy-5-phenylpyridin-3-yl)-1-phenylbutan-2-ol] | 0.125 µg/mL | 0.68 µg/mL | 0.71 µg/mL (≈ 1.45 µM) | > 50 µg/mL |  |  | 
COc1ncc(-c2cccc(Cl)c2)cc1C(c1ccccc1)C(O)(CCN(C)C)c1cccc2ccccc12 (stereo not drawn) [Compound 111] | 0.5 µg/mL | 2.73 µg/mL | 1.36 µg/mL (≈ 2.53 µM) | > 50 µg/mL |  |  | 
COc1ncc(-c2ccc(Br)cc2)cc1C(c1ccccc1)C(O)(CCN(C)C)c1cc(F)ccc1F (stereo not drawn) [Compound 308, 1-(5-(4-bromophenyl)-2-methoxypyridin-3-yl)-2-(2,5-difluorophenyl)-4-(dimethylamino)-1-phenylbutan-2-ol] |  | 0.09 µg/mL | 0.19 µg/mL (≈ 0.335 µM) | > 32 µg/mL | > 64 µg/mL |  | 
